According to patent US9164084B2, “Methods for determining aggressiveness of a cancer and treatment thereof” (Purdue Research Foundation, priority 2012, dated 2015):
Entries after “also recorded” stand apart in the source; their conditions may differ.

How the values were obtained:
PC-3 cells [1] = assay: Spectroscopic imaging and Raman spectral analysis of lipid droplets in PC-3 cells; type: cell-based, human; settings: for cholesteryl ester accumulation: ACAT inhibitor treatment
Description: (§1) A broad spectrum of human prostate epithelial cells has been examined. […] Loss of the tumor suppressor PTEN has been widely observed in both localized and metastatic prostate cancer and correlated with high Gleason grade. With loss of PTEN, PI3K signaling is hyper-activated, which, in turn, leads to AKT activation. […] AKT mediates the phosphorylation and activation of mTOR complex 1 (mTORC1) which plays critical roles in the regulation of protein and lipid biosynthesis. To determine whether the PI3K/AKT/mTOR pathway regulates cholesteryl ester accumulation, both types of cholesteryl ester rich cell lines, PC-3 and high passage LNCaP (LNCaP-HP), were treated with LY294002 (PI3K inhibitor), MK2206 (AKT inhibitor), and Rapamycin (mTOR inhibitor), respectively.
(§2) Because cholesterol can be either de novo synthesized via the mevalonate pathway or taken up from exogenous lipoproteins, the source of cholesterol used for cholesteryl ester accumulation was investigated. PC-3 cell were first treated with Simvastatin, an inhibitor of 3-hydroxy-3-methylglutaryl coenzyme A HMG-CoA reductase, the rate-limiting enzyme of the mevalonate pathway. […] In contrast, after treating cells with lipoprotein-deficient serum (LPDS), lipid droplets nearly disappeared in cholesteryl ester rich PC-3 and LNCaP-HP cells (FIG. 29, Panel A), but remained the same amount in cholesteryl ester poor cells including LNCaP-LP, DU145, and C4-2. Re-addition of low-density lipoprotein (LDL) into the LPDS medium restored lipid droplets and cholesteryl ester in both PC-3 and LNCaP-HP cells (FIG. 29, Panel B).
(§3) It is well known that LDL enters a cell via LDL receptor (LDLr) and traffics to the late endosome and lysosome where it is hydrolyzed to free fatty acids and free cholesterol. The excess free cholesterol together with the fatty acyl CoA substrate is then converted to cholesteryl ester by Acyl coenzyme A: cholesterol acyltransferase (ACAT) and stored in lipid droplets. Thus, cells were separately treated with Avasimibe and Sandoz 58-035, two different ACAT inhibitors. […] The significant reduction of cholesteryl ester accumulation upon Avasimibe treatment was further confirmed by an independent biochemical assay of cell lysates.

LNCaP-HP cells [2] = assay: Spectroscopic (SRL) imaging and Raman spectral analysis of lipid droplets in LNCaP-HP cells; type: cell-based, human; settings: for cholesteryl ester accumulation: ACAT inhibitor treatment
Description: The LNCaP-HP cells were treated with an ACAT inhibitor, avasimibe (structure shown in FIG. 13, Panel D), at 10 μM for 2 days.
as §1, §3

PC-3 cells [3] = assay: Cell growth / viable cell number of PC-3 cells; type: cell-based, human
Description: (§4) Because cholesteryl ester accumulation was found in PCa but not in normal prostate, how cell viability could be affected by regulating cholesteryl ester levels with the ACAT inhibitor Avasimibe was evaluated. […] The inhibitory effect of Avasimibe on the growth of PC-3 and LNCaP-HP cells was considerably greater than that in cholesteryl ester poor cancer cells including LNCaP-LP, DU145, and C4-2.

PANC-1 cells [4] = assay: Cell viability (ATP level) of PANC-1 cells; type: cell-based; settings: 7.5 μM for various periods
Description: (§5) The cells were treated with […] (control) or 7.5 μM avasimibe for various periods. Then cells were lysed and ATP level were quantified to determine the number of viable cells.
(§6) As the ACAT-1 inhibitor, avasimibe, effectively removed lipid droplet or cholesteryl ester accumulation in pancreatic cancer cells, the use of avasimibe as a chemotherapy agent for pancreatic cancer was explored. The effects of avasimibe on cell viability in BxPC3 and PANC-1 cells were examined.

PC-3 cells [5] = assay: Flow cytometry analysis of cell cycle and apoptosis in PC-3 cells; type: cell-based, human
BxPC3 cells [6] = assay: Cell viability (ATP level) of BxPC3 cells; type: cell-based; settings: 7.5 μM for various periods
Description: as §5, §6

PC-3 cells [7] = assay: Standard biochemical assay of CE and free cholesterol in PC-3; type: cell-based, human; settings: PC-3, 2-day treatment
Description: as §3
(§7) Finally, it was investigated whether Avasimibe-mediated suppression of tumor growth is associated with the regulation of cholesterol metabolism machinery. It was hypothesized that abrogating ACAT activity would up-regulate cellular level of free cholesterol and then down-regulate SREBP and LDLr in PCa cells (FIG. 40). […] To provide an explanation for enhanced uptake of LDL and then storage of excess cholesterol in the form of cholesteryl ester in aggressive prostate cancer, it was noticed that LDL is the primary carrier of essential polyunsaturated fatty acid including arachidonic acid (AA). Inside cells, AA is converted to a wide range of eicosanoids, which have been implicated in various pathological processes such as inflammation and cancer.

PC-3 cells [8] = assay: Immunoblotting of SREBP and LDLr in PC-3 cells; type: cell-based, human
Description: It has been shown that mTOR plays a key role in regulating the function of sterol regulatory element-binding proteins (SREBPs) which control lipid and cholesterol homeostasis. Specifically, when cellular sterol levels decrease, SREBP-1a and/or -2 precursors are cleaved to activate the expression of genes involved in de novo cholesterol synthesis and LDL-cholesterol uptake. […] Similar results for on LNCaP-HP cells were obtained.
as §7

PANC-1 cells [9] = assay: CRS microscopy and Raman spectroscopy of cholesteryl ester in PANC-1 cells; type: cell-based; settings: 7.5 μM for 24 h (FIG. 48)
Description: (§8) Coherent Raman scattering (CRS) microscopy is a label-free imaging technique that is highly sensitive to C—H bond abundant structures such as membranes and lipid droplets. By matching the C—H bond stretching vibration mode at 2850 cm^−1, lipid distribution was imaged in human pancreatic cancer (n=10) and normal tissues (n=10) provided by IU School of Medicine. A remarkable amount of lipid droplets in all pancreatic cancer tissues was observed (FIG. 47, Panel B). […] Furthermore, by coupling a spectrometer to the CRS microscope, the devices was able to dissect the composition of individual lipid droplets through confocal Raman spectral analysis. […] Using emulsified mixtures of cholesteryl oleate and glyceryl trioleate (Sigma), it was verified that height ratio of the Raman peak at 702 cm^−1 the Raman peak at 1442 cm^−1 (CH^2 bending vibration mode) is linearly proportional to molar percentage of cholesteryl ester (FIG. 47, Panel D) out of the total neutral lipids. Based on this calibration curve, it was concluded that over 80% of neutral lipids in human pancreatic cancer tissues are cholesteryl ester. In order to understand how lipids accumulate in pancreatic cancer, several in vitro studies using two common pancreatic cancer cell lines, BxPC3 and PANC-1 were performed. […]

LNCaP-HP cells [10] = assay: Cellular uptake of DiI-labeled LDL in LNCaP-HP cells; type: cell-based, human; settings: 2-day treatment
Description: as §7

PC-3 xenografts = assay: Mice bearing PC-3 xenografts treated with Avasimibe; type: in vivo
Description: To test the potential of using Avasimibe to treat advanced PCa in vivo, Avasimibe (15 mg/kg body weight by i.p. injection) was administered to the mice bearing PC-3 xenografts. Daily treatment of mice with the Avasimibe inhibited the growth of PC-3 tumors by ˜2 folds (FIG. 33), and induced ˜40% reduction in tumor weight by the end of 30-day treatment (FIG. 34).

LNCaP-HP cells [11] = assay: Immunoblotting of SREBP and LDLr in LNCaP-HP cells; type: cell-based, human
Description: as §7

PC-3 cells [12] = assay: Cellular uptake of DiI-labeled LDL in PC-3 cells; type: cell-based, human; settings: PC-3, 2-day treatment
Description: as §2
Finally, it was investigated whether Avasimibe-mediated suppression of tumor growth is associated with the regulation of cholesterol metabolism machinery. It was hypothesized that abrogating ACAT activity would up-regulate cellular level of free cholesterol and then down-regulate SREBP and LDLr in PCa cells (FIG. 40). […]

BxPC3 cells [13] = assay: CRS microscopy of lipid droplets in BxPC3 cells; type: cell-based; settings: 7.5 μM for 24 h (FIG. 48)
Description: as §8

[14] = test system: normal prostate RWPE1 cell; assay: Toxic effect on normal prostate RWPE1 cell; type: cell-based; settings: at the same doses
PC-3 cells [15] = assay: LC-MS of arachidonic acid (AA) in PC-3 cell lysates; type: cell-based, human
Description: as §7

[16] = test system: pancreatic cancer cells (BxPC3 and PANC-1); assay: Western blot of pancreatic cancer cells before and after avasimibe treatment; type: cell-based; settings: pancreatic cancer cells (FIG. 49)
Description: In order to understand how lipids accumulate in pancreatic cancer, several in vitro studies using two common pancreatic cancer cell lines, BxPC3 and PANC-1 were performed. Since ACAT is the enzyme responsible for the conversion from cholesterol to cholesteryl ester the effects of inhibiting ACAT-1, the universally expressed isoform, on lipid metabolism in pancreatic cancer cells were first examined. […] To explore the molecular mechanism, western blot of the cells before and after avasimibe treatment were performed.

LNCaP-HP cells [17] = assay: Cell growth / viable cell number of LNCaP-HP cells; type: cell-based, human; settings: for proliferation (growth) rate, MTT assay: treatment started at day 1 (FIG. 14)
Description: To study the impact of cholesteryl ester storage on tumor growth, the growth rate of LNCaP-HP and LNCaP-LP cells were measured using MTT assay (a colorimetric assay for measuring number of cells present, where the color is proportional to the number of cells).
as §4

CCCCCCCCCC[Si](C)(C)CCC(=O)NC(Cc1ccc(C)cc1)c1ccccc1 (centres unmarked) [Sandoz 58-035]
lipid droplet amount (PC-3 cells [1]): remaining unchanged | cholesteryl ester accumulation (PC-3 cells [1]): effectively suppressed cholesteryl ester accumulation | lipid droplet amount (LNCaP-HP cells [2]): remaining unchanged | cholesteryl ester accumulation (LNCaP-HP cells [2]): effectively suppressed cholesteryl ester accumulation

CCCCC/C=C\C/C=C\C/C=C\C/C=C\CCCC(=O)O [AA, arachidonic acid]
growth of PC-3 cells (PC-3 cells [3]; added LDL or AA (FIG. 46)): promoted the growth of PC-3 cells in a dose-dependent manner

NC1(c2ccc(-c3nc4ccn5c(=O)[nH]nc5c4cc3-c3ccccc3)cc2)CCC1 [MK2206]
autofluorescent granules indicative of autophagy (PC-3 cells [1]): induced massive accumulation of autofluorescent granules | lipid droplet amount (PC-3 cells [1]): radically removed lipid droplets | autofluorescent granules indicative of autophagy (LNCaP-HP cells [2]): induced massive accumulation of autofluorescent granules | lipid droplet amount (LNCaP-HP cells [2]): radically removed lipid droplets

CC(C)c1cc(C(C)C)c(CC(=O)NS(=O)(=O)Oc2c(C(C)C)cccc2C(C)C)c(C(C)C)c1 [Avasimibe, avasimibe]
cell viability (ATP level) (PANC-1 cells [4]): significantly reduced cell viability | cell viability (ATP level) (PANC-1 cells [4]; listed as avasimibe): significantly reduced the viability; also recorded: dramatically reduced the cell viability | G2/M phase population compared to control group (PC-3 cells [5]): 2 times smaller | sub G0/G1 population compared to control group (PC-3 cells [5]): ~3 times larger | cell viability (ATP level) (BxPC3 cells [6]): significantly reduced cell viability | cell viability (ATP level) (BxPC3 cells [6]; listed as avasimibe): significantly reduced the viability; also recorded: dramatically reduced the cell viability | level of CE (PC-3 cells [7]): reduced the level of CE | level of free cholesterol (PC-3 cells [7]): slightly increased the level of free cholesterol | LDLr level (immunoblot) (PC-3 cells [8]): down-regulation | SREBP-1 level (immunoblot) (PC-3 cells [8]): down-regulation | IC50 (PC-3 cells [3]; Homo sapiens, 72 h, PC-3 cell, 3 days): 7.32 µM | cytotoxicity at 7.5 µM (PC-3 cells [3]; Homo sapiens, 72 h, PC-3 cells, 3 days of 7.5 μM, read-out: reduction in viable cell number): ~48% | proliferation (viable cell number) (PC-3 cells [3]; PC-3 cells (FIG. 31)): significantly hampered the proliferation | cholesteryl ester accumulation (PANC-1 cells [9]): blocked cholesteryl ester accumulation | cholesteryl ester accumulation (PANC-1 cells [9]; listed as avasimibe): eliminated cholesteryl ester; also recorded: blocked cholesteryl ester accumulation | uptake of DiI-labeled LDL (LNCaP-HP cells [10]): drastically inhibited LDL uptake | increase of apoptosis (TUNEL IHC) (PC-3 xenografts; PC-3 tumor): ~2 folds | reduction of proliferation (Ki67 IHC) (PC-3 xenografts; PC-3 tumor): ~70% | cholesteryl ester content in PC-3 tumor (spectroscopic imaging of extracted tissues) (PC-3 xenografts; compared to vehicle-treated): significantly dropped | tumor size compared to controls (PC-3 xenografts; mice (FIG. 33)): decreased tumor size | body weight over the course of treatment (PC-3 xenografts; mice (FIG. 36)): remained steady | pathological review of heart, kidney, liver, lung, and spleen (PC-3 xenografts; mice receiving Avasimibe): no signs of toxicity | appearance of harvested tumors (PC-3 xenografts; mice, 15 mg/kg i.p. daily): less bloody in appearance | reduction in tumor weight (PC-3 xenografts; mice, 15 mg/kg i.p. daily, end of 30-day treatment): ~40% | inhibition of growth of PC-3 tumors (PC-3 xenografts; mice, 15 mg/kg i.p., daily treatment): ~2 folds | general toxicity (animal behavior, body weight) (PC-3 xenografts; mouse, in vivo, ip, 15 mg/kg): did not cause general toxicity | lipid droplet amount (PC-3 cells [1]): remaining unchanged | cholesteryl ester accumulation (PC-3 cells [1]): effectively suppressed cholesteryl ester accumulation | LDLr level (immunoblot) (LNCaP-HP cells [11]): down-regulation | SREBP-2 level (immunoblot) (LNCaP-HP cells [11]): down-regulation | uptake of DiI-labeled LDL (PC-3 cells [12]): drastically inhibited LDL uptake | lipid droplet amount (BxPC3 cells [13]): reduced lipid droplet amount | lipid droplet amount (BxPC3 cells [13]; listed as avasimibe): reduced the lipid droplet amount; also recorded: significantly reduced the amount of lipid droplets | toxic effect on normal prostate cell [14]: no toxic effect | level of AA (arachidonic acid) (PC-3 cells [15]): significantly reduced the level of AA | lipid droplet amount (LNCaP-HP cells [2]): remaining unchanged | accumulation of cholesteryl ester in lipid droplets (702 cm^-1 Raman peak) (LNCaP-HP cells [2]; 10 μM for 2 days): completely blocked the accumulation of CHOLESTERYL ESTER | cell morphology (LNCaP-HP cells [2]; 10 μM for 2 days): reversed the cell morphology to that of LNCaP-LP cells | cholesteryl ester accumulation (LNCaP-HP cells [2]): effectively suppressed cholesteryl ester accumulation | HMGCoA reductase level (western blot) [16]: significantly reduced the level of HMGCoA reductase | HMGCoA reductase level (western blot) ([16]; listed as avasimibe): reduced the expression of HMGCoA reductase | LDL receptor level (western blot) ([16]; listed as avasimibe): not affected | IC50 (LNCaP-HP cells [17]; Homo sapiens, 72 h, LNCaP-HP cell, 3 days): 9.64 µM | cytotoxicity at 7.5 µM (LNCaP-HP cells [17]; Homo sapiens, 72 h, LNCaP-HP cells, 3 days of 7.5 μM, read-out: reduction in viable cell number): ~55% | proliferation (viable cell number) (LNCaP-HP cells [17]; LNCaP-HP cells (FIG. 31)): significantly hampered the proliferation | proliferation (growth) rate, MTT assay (LNCaP-HP cells [17]; LNCaP-HP cells): significantly slowed down the proliferate rate | proliferation (growth) rate, MTT assay (LNCaP-HP cells [17]; LNCaP-HP cells, listed as avasimide): significantly reduced growth rate
